{
  "source": "patent US20230066156A1",
  "about": "“6-SUBSTITUTED, 22-CYANO HYODEOXYCHOLANIC ANALOGUES AND USES THEREOF” (PRECISION BIO-THERAPEUTICS S.R.L., priority 2019, published 2023)",
  "key": {"human GPBAR1": {"molecular_target": "T1, human GPBAR1 (Homo sapiens, UniProt Q8TDU6)", "T1 construct": "expressed in transfected cells; host or cells: HEK-293T", "T1 sequence (Q8TDU6 1-330)": "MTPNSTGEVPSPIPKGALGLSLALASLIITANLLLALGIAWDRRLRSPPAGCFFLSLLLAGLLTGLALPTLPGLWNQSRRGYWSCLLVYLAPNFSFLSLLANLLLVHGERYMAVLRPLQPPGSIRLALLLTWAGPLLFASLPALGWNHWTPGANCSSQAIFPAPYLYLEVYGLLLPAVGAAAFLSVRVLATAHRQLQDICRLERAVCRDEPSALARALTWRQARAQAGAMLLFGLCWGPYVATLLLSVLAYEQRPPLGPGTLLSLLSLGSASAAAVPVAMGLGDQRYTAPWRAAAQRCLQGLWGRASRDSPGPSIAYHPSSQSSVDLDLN", "experiment": "GPBAR1 mediated transactivation, CRE-luciferase reporter in transfected HEK-293T cells", "format": "cell-based", "description": "(§1) Selected compounds were tested in vitro on FXR and TGR5/GPBAR1 receptors (Table 1) using a whole cell model transfected with a reporter genes. The activity was evaluated in comparison with chenodeoxycholic acid (CDCA) and TLCA.\n(§2) CDCA is a primary bile acid that functions as an endogenous ligand for FXR, while TLCA is a physiological ligand for TGR5/GPBAR1. In this assay, HepG2 cells (a liver-derived cell line) were cultured at 37° C. in minimum essential medium with Earl's salts containing 10% fetal bovine serum (FBS), 1% L-glutamine, and 1% penicillin/streptomycin. HEK-293T cells were cultured at 37° C. in D-MEM containing 10% fetal bovine serum (FBS), 1% L-glutamine, and 1% penicillin/streptomycin. The transfection experiments were performed using Fugene HD according to manufactured specifications. Cells were plated in a 24-well plate at 5×10^4 cells/well. For FXR mediated transactivation, HepG2 cells were transfected with 100 ng of pSG5-FXR, 100 ng of pSG5-RXR, 100 ng of pGL4.70 a vector encoding the human Renilla gene and 250 ng of the reporter vector p(hsp27)-TK-LUC containing the FXR response element IR1 cloned from the promoter of heat shock protein 27 (hsp27).\nFor GPBAR1 mediated transactivation, HEK-293T cells were transfected with 200 ng of pGL4.29, a reporter vector containing a cAMP response element (CRE) that drives the transcription of the luciferase reporter gene luc2P, with 100 ng of pCMVSPORT6-human GPBAR1, and with 100 ng of pGL4.70 a vector encoding the human Renilla gene. In control experiments HEK-293T cells were transfected only with vectors pGL4.29 and pGL4.70 to exclude any possibility that compounds could activate the CRE in a GPBAR1 independent manner. At 24 h post-transfection, cells were stimulated for 18 h with 10 μM TLCA as a control agent or putative GPBAR1 agonists as the same concentration. After treatments, cells were lysed in 100 μL of lysis buffer (25 mM Tris-phosphate, pH 7.8; 2 mM DTT; 10% glycerol; 1% Triton X-100), and 20 μL of cellular lysate was assayed for luciferase activity using the luciferase assay system. Luminescence was measured using Glomax 20/20 luminometer. Luciferase activities were normalized against Renilla activities. Antagonism against FXR of GPBAR1/TGR5 was measured as percent of activity in transactivation assay suing activity of TLCA as example of agonism.\n(§3) The data on the activity of certain compounds of the invention on TGR5/GPBAR1 are described in the following table 1. In this table, activities for compounds of the invention on GPBAR1 was compared to those of the reference compound TLCA. For % of activity, each compound was tested at the concentration of 10 microM and transactivation activity of TLCA on CRE (i.e. TGR5/GPBAR1) was considered equal to 100%. For selectivity toward FXR, activity was assessed in HepG2 cells transfected with an FXR responsive element (IR1) cloned upstream to the luciferase gene. For calculation of efficacy data, maximal transactivation of IR1 caused by each compound (10 μM) was compared to maximal transactivation caused by CDCA (10 μM). GPBAR1/FXR selectivity calculated as ratio between % of activity toward GPBAR1 and % of activity toward FXR. Each experiment was conducted in triplicate."}, "FXR": {"molecular_target": "T2, FXR (Homo sapiens, UniProt Q96RI1)", "T2 construct": "expressed in transfected cells; host or cells: HepG2", "T2 sequence (Q96RI1 1-486)": "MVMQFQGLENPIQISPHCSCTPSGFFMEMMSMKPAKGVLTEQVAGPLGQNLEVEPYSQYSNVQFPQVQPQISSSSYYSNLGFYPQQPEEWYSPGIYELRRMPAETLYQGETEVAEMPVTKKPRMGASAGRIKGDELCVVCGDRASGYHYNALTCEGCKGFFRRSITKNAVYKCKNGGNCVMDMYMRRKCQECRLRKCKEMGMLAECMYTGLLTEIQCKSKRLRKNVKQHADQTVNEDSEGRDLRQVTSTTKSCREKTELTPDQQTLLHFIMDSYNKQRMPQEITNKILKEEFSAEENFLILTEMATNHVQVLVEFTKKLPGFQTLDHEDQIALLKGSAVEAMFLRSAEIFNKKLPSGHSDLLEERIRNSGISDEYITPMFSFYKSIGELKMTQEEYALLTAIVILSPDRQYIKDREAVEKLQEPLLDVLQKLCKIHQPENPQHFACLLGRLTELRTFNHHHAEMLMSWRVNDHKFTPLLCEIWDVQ", "T2 sequence (P19793 1-462 partner)": "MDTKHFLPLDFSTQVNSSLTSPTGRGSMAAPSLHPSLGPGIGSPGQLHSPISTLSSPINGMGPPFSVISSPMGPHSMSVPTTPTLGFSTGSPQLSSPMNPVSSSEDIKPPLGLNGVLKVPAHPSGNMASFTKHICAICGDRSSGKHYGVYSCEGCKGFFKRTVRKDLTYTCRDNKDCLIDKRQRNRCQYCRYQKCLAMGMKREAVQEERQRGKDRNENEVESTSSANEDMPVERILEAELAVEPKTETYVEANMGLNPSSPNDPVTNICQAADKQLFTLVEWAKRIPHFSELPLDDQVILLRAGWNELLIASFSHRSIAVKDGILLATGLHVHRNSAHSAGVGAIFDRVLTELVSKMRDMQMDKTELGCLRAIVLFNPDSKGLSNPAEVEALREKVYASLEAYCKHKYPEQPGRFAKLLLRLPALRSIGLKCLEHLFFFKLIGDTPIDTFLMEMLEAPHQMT", "experiment": "FXR mediated transactivation, IR1 (hsp27)-luciferase reporter in transfected HepG2 cells", "format": "cell-based", "details": "compound at 10 μM, HepG2, vs maximal transactivation by CDCA 10 μM, triplicate", "description": "as §1, §2, §3"}},
  "note": "Several values for one entry are separate records, joined by “and”; a condition that tells them apart may be missing. Equal entries are not always repeated.",
  "data": [
    {"compound": "CC[C@]1(O)C[C@H]2[C@@H]3CC[C@H]([C@H](C)CC#N)[C@@]3(C)CC[C@@H]2[C@@]2(C)CC[C@@H](O)C[C@@H]12", "note": "[PBT110B, 3α,6α-dihydroxy-6β-ethyl-24-nor-5β-cholan-23-nitrile]", "values": [
      {"measurement": "EC50", "setting": "human GPBAR1; HEK-293T CRE-luciferase transactivation", "value": 300, "unit": "nM"},
      {"measurement": "GPBAR1 (% of activity in comparison to 10 μM TLCA)", "setting": "human GPBAR1; compound at 10 microM, HEK-293T, TLCA = 100%, triplicate", "value": "101.2% and 101.2 ± 4.1%"},
      {"measurement": "GPBAR1/FXR selectivity", "setting": "human GPBAR1; ratio between % of activity toward GPBAR1 and % of activity toward FXR", "value": 8.2},
      {"measurement": "FXR (% of activity in comparison to 10 μM CDCA)", "setting": "FXR", "value": "12.3 ± 0.47", "unit": "%"}
    ]}
  ]
}
